Measurements: the supplement of paper PMC10307832

Key:
Experiment in all cases: relative viability (nuclei count vs DMSO), 5 days (fraction); higher = more cells survive
AZ505 + Bortezomib = compound: C1CCC(CC1)N(CCNCCC2=C3C(=C(C=C2)O)NC(=O)CO3)C(=O)CCNCCC4=CC(=C(C=C4)Cl)Cl [AZ505] + CC(C)C[C@H](NC(=O)[C@H](Cc1ccccc1)NC(=O)c1cnccn1)B(O)O [Bortezomib] (partner 0.002 µM)
Procedure, shortened: (§1)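 A single step with final 0.05% Triton X-100, 1% formaldehyde and 1 ug/ml Hoechst fixed the cells and stained nuclei 5 days after treatment. Lung cancer cell lines in 1536-well plates had been treated by pin tool the day after seeding with one drug alone or a fixed anchor-drug dose plus five library-drug doses (not always all listed) in √10 steps, and nuclei were counted on 4× images. Relative viability is the ratio of nuclei in treated wells to nuclei in vehicle wells, taken as the median of duplicate plates.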

AZ505 + Luminespib = compound: C1CCC(CC1)N(CCNCCC2=C3C(=C(C=C2)O)NC(=O)CO3)C(=O)CCNCCC4=CC(=C(C=C4)Cl)Cl [AZ505] + CCNC(=O)c1noc(-c2cc(C(C)C)c(O)cc2O)c1-c1ccc(CN2CCOCC2)cc1 [Luminespib] (partner 0.01 µM)
Procedure, shortened: as §1

AZ505 + Pemetrexed = compound: C1CCC(CC1)N(CCNCCC2=C3C(=C(C=C2)O)NC(=O)CO3)C(=O)CCNCCC4=CC(=C(C=C4)Cl)Cl [AZ505] + Nc1nc2[nH]cc(CCc3ccc(C(=O)N[C@@H](CCC(=O)O)C(=O)O)cc3)c2c(=O)[nH]1 [Pemetrexed] (partner 0.2 µM)
Procedure, shortened: as §1

Dactolisib + Tozasertib = compound: Cn1c(=O)n(-c2ccc(C(C)(C)C#N)cc2)c2c3cc(-c4cnc5ccccc5c4)ccc3ncc21 [Dactolisib] + Cc1cc(Nc2cc(N3CCN(C)CC3)nc(Sc3ccc(NC(=O)C4CC4)cc3)n2)n[nH]1 [Tozasertib] (partner 0.1 µM)
Procedure, shortened: as §1

## UMC-11
AZ505 + Bortezomib; first compound 0.08 µM
  relative viability: 0.661
AZ505 + Bortezomib; first compound 0.253 µM
  relative viability: 0.872
AZ505 + Bortezomib; first compound 0.8 µM
  relative viability: 0.68
AZ505 + Bortezomib; first compound 2.53 µM
  relative viability: 0.734
AZ505 + Bortezomib; first compound 8 µM
  relative viability: 0.939
AZ505 + Luminespib; first compound 0.08 µM
  relative viability: 1.05
AZ505 + Luminespib; first compound 0.253 µM
  relative viability: 1.04
AZ505 + Luminespib; first compound 0.8 µM
  relative viability: 0.996
AZ505 + Luminespib; first compound 2.53 µM
  relative viability: 1.01
AZ505 + Luminespib; first compound 8 µM
  relative viability: 1.03
AZ505 + Pemetrexed; first compound 0.08 µM
  relative viability: 0.757
AZ505 + Pemetrexed; first compound 0.253 µM
  relative viability: 0.714
AZ505 + Pemetrexed; first compound 0.8 µM
  relative viability: 0.705
AZ505 + Pemetrexed; first compound 2.53 µM
  relative viability: 0.901
AZ505 + Pemetrexed; first compound 8 µM
  relative viability: 0.894
Dactolisib + Tozasertib; first compound 0.002 µM
  relative viability: 0.214
Dactolisib + Tozasertib; first compound 0.006325 µM
  relative viability: 0.198
Dactolisib + Tozasertib; first compound 0.02 µM
  relative viability: 0.216
Dactolisib + Tozasertib; first compound 0.06325 µM
  relative viability: 0.221
Dactolisib + Tozasertib; first compound 0.2 µM
  relative viability: 0.23
